Results on 1 molecule are retold here after patent US20230346735A1, “Nutritional Composition Comprising Carnitine and Method for Treating or Preventing an Infection in a Mammal” (priority 2020, published 2023).

Entries after “also recorded” stand apart in the source; their conditions may differ.

In series [1] the test system is Furin. Nature of the series: Furin protein and mRNA in rat tissue samples. The class given is in vivo. Particulars: exercised rats. From the text: (§1) After a week of the adaptation period, the rats were divided into eight equal groups containing seven rats each. The initial body weights of the rats were similar in all the groups (214.53 grams ± 4.67; P > 0.05).
(§2) Groups 1 and 2 were not subjected to an exercise routine. Groups 3-8 were subjected to an exercise regimen consisting of a week training period with an incremental exercise capacity described below. After the week training period the exercise regimen followed was each rat in Groups 3-8 were subjected to 6 weeks of running at 25 m/min during 45 min […]. […] These correspond to 0, 250, 500, 1000, 2000 and 4000 mg per day for humans, respectively.
(§3) To determine the protein accumulation in the liver, muscle and lung samples, a Western Blotting test was used. Each of the tissue samples of the same group were pooled, homogenized, and sonicated in lysis buffer supplemented with 1X protease and phosphatase inhibitor cocktail (#5872, Cell Signaling). Total protein content was detected with Qubit 2.0 Fluorometer according to the manufacturer’s protocol (Invitrogen, Life Technologies Corporation, Carlsbad, CA, USA). […] Protein levels were analyzed densitometrically using an image analysis system (Image J; National Institute of Health, Bethesda, MD, USA), corrected with values determined on β-actin blots and expressed as relative values compared with the control group. […]

Series [2] concerns ACE-1. The series can be described thus: Human study, serum ELISA, ACE-1. Particulars: 2 g daily L-carnitine tartrate, 5 weeks, before or after exercise challenge. The class given is in vivo. Here is the method: A human study was run with a total of 80 healthy male and female subjects ranging from 21 to 65 years of age, who were active (i.e. 30 minutes per day of moderate activity, 3 days per week) are randomized into two groups. […] Seventy-three subjects completed the trial and biomarker data were analyzed from the sera of the 73 completers. Sera were collected for analysis of C-Reactive Protein (CRP), ACE 1, ACE 2, TMPRSS 2, the Tumor Necrosis Factor alpha (TNF-alpha), and Furin at baseline in the beginning of the trial, at week 5 and 48 hr after an exercise challenge as described (Clinicaltrials.gov NCT04420377). The exercise challenge serves as surrogate to the inflammation stimulus.
To obtain human sera, venous blood was extracted by venipuncture of the antecubital vein using a 21-gauge syringe and collected into a 10 mL EDTA vacutainer tube (BD Vacutainer®, Becton, Dickinson and Company, Franklin Lakes, NJ) by a certified phlebotomist. […] Human ACE-1, ACE-2, TMPRSS2, Furin, CRP and TNF-alpha protein levels were assessed using commercially available ELISA kits, according the manufacturer recommendations, ACE-1 (R&D systems Inc., Minneapolis, MN, USA), ACE-2 (RayBiotech inc., Peachtree Corners, GA), TMPRSS2 (Novus Biologicals, Littleton, CO), CRP (R&D Systems Inc., Minneapolis, MN), TNF-alpha (Novus Biologicals, Littleton, CO), and Furin (Sigma Aldrich, St. Louis, MO). […]
For orientation: ELISA stands for enzyme-linked immunosorbent assay.

In series [3] the test system is TMPRSS2. The series can be described thus: Rat plasma serum ELISA, TMPRSS2. The class given is in vivo. Particulars: exercised rats, FIG. 5D.
Series [4] concerns Calu-3 cells. The class given is cell-based, human. The note with it: Calu-3, 50 uM to 10 mM, 24 h, 48 h or 72 h. Here is the method: Calu-3 cells were maintained in 50% DMEM (Dulbecco’s Modified Eagle Medium) + 50% Ham’s F12 media supplemented with 10% FBS (fetal bovine serum) and 1% penicillin/streptomycin. Vero E6 cells were maintained in DMEM media supplemented with 10% FBS and 1% penicillin/streptomycin.
Calu-3 seeded in a 96-well plate (30,000 cells) were stimulated with 50 uM, 100 uM, 250 uM, 500 uM, 1 mM and 10 mM Carnitine alone. At 24 h, 48 h or 72 h post stimulation, media was removed and cells were subjected to a standard MTT assay.

Series [5] has as its system ACE-1. The series can be described thus: ACE-1 protein and mRNA in rat lung tissue. The class given is in vivo. Particulars: exercised rats.
Excerpt: as §1, §2, §3

Regarding `C[N+](C)(C)C[C@H](O)CC(=O)[O-]` [L-carnitine], the “Furin mRNA levels” value in series [1] (tissues, versus exercise control) is “dose-dependent decrease”. Besides, in series [1] (western blotting), the Furin protein level entry is “return to the baseline control”. Besides, the ACE-1 serum levels entry in series [2] is “no significant effect; also recorded: no significant interaction or main effect”. Besides, the “serum TMPRSS2” value in series [3] is recorded as “controlling TMPRSS2”. In addition, the “cytotoxicity (MTT)” value in series [4] is “did not show any cytotoxic properties”. The “ACE-1 mRNA levels” value in series [5] (compared to the exercise control, without reaching the control levels) was “increased”. Besides, the ACE-1 protein levels result in series [5] (lung, FIG. 6A, significantly lower than the baseline control levels) is reported as “increase”.
